Among the data in BindingDB's records for doi:10.1016/s0960-894x(98)00583-6 (Novartis Horsham Research Center, 1999) are IC50 values, retold here.

The target in this assay is cGMP-inhibited 3',5'-cyclic phosphodiesterase 3A/3B (Homo sapiens, UniProt Q13370+Q14432). The assay is described as follows: Inhibition of phosphodiesterase (PDE) 3.

For orientation: IC50 means the concentration at which inhibition is half-maximal. A low value points to greater potency.

Molecules are shown by their SMILES.

Chain of cGMP-inhibited 3',5'-cyclic phosphodiesterase 3A/3B (Q14432 whole entry): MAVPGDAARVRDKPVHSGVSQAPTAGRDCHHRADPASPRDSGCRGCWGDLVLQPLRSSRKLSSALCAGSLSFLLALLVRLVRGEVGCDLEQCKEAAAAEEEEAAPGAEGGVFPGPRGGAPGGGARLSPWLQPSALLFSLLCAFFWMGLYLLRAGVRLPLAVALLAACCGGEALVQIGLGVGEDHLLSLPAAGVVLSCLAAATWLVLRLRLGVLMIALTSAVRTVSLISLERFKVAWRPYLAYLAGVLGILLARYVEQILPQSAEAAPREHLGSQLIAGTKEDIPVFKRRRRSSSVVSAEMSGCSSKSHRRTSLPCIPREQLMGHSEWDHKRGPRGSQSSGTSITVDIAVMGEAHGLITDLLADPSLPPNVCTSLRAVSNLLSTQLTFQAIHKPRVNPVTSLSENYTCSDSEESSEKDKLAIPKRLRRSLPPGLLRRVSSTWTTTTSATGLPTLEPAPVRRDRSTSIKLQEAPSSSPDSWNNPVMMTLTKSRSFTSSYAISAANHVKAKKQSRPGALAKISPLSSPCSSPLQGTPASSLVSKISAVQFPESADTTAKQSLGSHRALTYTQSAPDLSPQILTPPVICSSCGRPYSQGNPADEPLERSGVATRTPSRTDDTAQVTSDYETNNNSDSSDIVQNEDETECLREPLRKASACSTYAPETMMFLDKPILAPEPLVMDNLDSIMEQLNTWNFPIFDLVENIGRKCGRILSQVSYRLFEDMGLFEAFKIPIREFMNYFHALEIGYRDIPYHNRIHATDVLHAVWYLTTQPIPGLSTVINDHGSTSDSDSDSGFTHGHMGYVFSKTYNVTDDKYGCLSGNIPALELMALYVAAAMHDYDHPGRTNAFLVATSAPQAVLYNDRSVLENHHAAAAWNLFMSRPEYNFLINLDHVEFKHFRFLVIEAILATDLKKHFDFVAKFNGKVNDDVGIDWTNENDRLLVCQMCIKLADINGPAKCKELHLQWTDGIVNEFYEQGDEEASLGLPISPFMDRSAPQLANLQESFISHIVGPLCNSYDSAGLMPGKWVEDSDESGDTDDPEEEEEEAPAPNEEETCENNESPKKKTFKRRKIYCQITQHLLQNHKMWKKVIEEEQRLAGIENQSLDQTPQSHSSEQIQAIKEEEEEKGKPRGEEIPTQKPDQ
Chain of cGMP-inhibited 3',5'-cyclic phosphodiesterase 3A/3B (Q13370 whole entry): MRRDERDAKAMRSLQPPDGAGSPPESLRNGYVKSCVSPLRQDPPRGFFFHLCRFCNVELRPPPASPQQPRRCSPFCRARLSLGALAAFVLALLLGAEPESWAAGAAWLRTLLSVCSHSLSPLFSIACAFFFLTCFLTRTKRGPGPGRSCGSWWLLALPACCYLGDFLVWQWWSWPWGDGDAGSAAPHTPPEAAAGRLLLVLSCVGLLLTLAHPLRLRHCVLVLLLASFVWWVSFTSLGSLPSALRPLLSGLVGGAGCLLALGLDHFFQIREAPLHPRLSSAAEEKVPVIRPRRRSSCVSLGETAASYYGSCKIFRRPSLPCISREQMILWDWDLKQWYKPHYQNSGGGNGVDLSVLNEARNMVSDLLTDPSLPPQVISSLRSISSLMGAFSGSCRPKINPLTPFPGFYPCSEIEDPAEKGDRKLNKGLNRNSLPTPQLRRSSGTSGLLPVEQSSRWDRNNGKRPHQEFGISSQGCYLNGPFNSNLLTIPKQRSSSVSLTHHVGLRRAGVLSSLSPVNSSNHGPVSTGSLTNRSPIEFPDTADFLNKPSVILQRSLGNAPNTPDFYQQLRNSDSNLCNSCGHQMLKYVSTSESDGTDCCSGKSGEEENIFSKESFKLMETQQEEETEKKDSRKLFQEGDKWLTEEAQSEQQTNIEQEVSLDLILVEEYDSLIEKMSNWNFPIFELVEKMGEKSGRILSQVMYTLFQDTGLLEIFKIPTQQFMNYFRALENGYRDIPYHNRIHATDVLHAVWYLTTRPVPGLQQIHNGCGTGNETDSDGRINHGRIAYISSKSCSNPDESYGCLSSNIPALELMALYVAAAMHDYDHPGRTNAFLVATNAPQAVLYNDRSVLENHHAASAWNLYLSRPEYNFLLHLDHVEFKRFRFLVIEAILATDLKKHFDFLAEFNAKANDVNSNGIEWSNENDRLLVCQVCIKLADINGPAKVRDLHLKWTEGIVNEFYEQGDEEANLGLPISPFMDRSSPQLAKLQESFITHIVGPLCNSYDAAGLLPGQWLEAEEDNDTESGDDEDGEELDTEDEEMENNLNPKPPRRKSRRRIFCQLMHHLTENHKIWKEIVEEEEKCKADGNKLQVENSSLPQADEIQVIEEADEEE

The compound `COc1cccc(COc2cccc(N3CC(c4ccc(OC)c(OC5CCCC5)c4)CC3=O)c2)c1` (centres undefined) registered an IC50 of over 100 µM.

The compound `COc1cccc(COc2cc(C(=O)NN(C)C)cc(N3CC(c4ccc(OC)c(OC5CCCC5)c4)CC3=O)c2)c1` (centres undefined) returned an IC50 of over 100 µM.

In turn, `COc1cccc(COc2cc(C(=O)O)cc(N3CC(c4ccc(OC)c(OC5CCCC5)c4)CC3=O)c2)c1` (centres undefined) yielded an IC50 of over 100 µM.

`COc1ccc([C@@H]2CNC(=O)C2)cc1OC1CCCC1` (racemic) [Adeo] registered an IC50 of over 100 µM.
